Experimental data as given in ChEMBL document CHEMBL3045916, “Synthesis, characterization, biological evaluation and in silico screening of oxadiazinanones” (Med Chem Res, 2013).
≈ marks a conversion by molar mass, not a printed value.

Key:
Staphylococcus aureus [1] = test: Antibacterial activity against methicillin-resistant Staphylococcus aureus assessed as growth inhibition after 24 hr by macro-dilution method; assay type: functional
[2] = tested on: Radical scavenging activity; test: Antioxidant activity assessed as DPPH radical scavenging activity at 6 ug/mL after 30 min by spectrophotometric analysis relative to control; assay type: functional
[3] = tested on: Radical scavenging activity; test: Antioxidant activity assessed as DPPH radical scavenging activity at 2 ug/mL after 30 min by spectrophotometric analysis relative to control; assay type: functional
Aspergillus fumigatus [4] = test: Antifungal activity against Aspergillus fumigatus assessed as growth inhibition after 48 hr by agar disk diffusion method; assay type: functional
[5] = tested on: Radical scavenging activity; test: Antioxidant activity assessed as DPPH radical scavenging activity after 30 min by spectrophotometric analysis; assay type: functional
Klebsiella pneumoniae [6] = test: Bactericidal activity against Klebsiella pneumoniae clinical isolate after 18 to 24 hr; assay type: functional
Talaromyces marneffei [7] = test: Antifungal activity against Talaromyces marneffei assessed as growth inhibition after 48 hr by macro-dilution method; assay type: functional
Escherichia coli [8] = test: Bactericidal activity against Escherichia coli ATCC 25922 after 18 to 24 hr; assay type: functional
Escherichia coli [9] = test: Antibacterial activity against Escherichia coli ATCC 25922 assessed as growth inhibition after 24 hr by disk diffusion method; assay type: functional
[10] = tested on: Radical scavenging activity; test: Antioxidant activity assessed as DPPH radical scavenging activity at 10 ug/mL after 30 min by spectrophotometric analysis relative to control; assay type: functional
Streptococcus pyogenes [11] = test: Antibacterial activity against Streptococcus pyogenes clinical isolate assessed as growth inhibition after 24 hr by macro-dilution method; assay type: functional
[12] = tested on: Radical scavenging activity; test: Antioxidant activity assessed as DPPH radical scavenging activity at 4 ug/mL after 30 min by spectrophotometric analysis relative to control; assay type: functional
[13] = tested on: Trichophyton mentagrophytes; test: Antifungal activity against Trichophyton mentagrophytes assessed as growth inhibition after 48 hr by agar disk diffusion method; assay type: functional
Klebsiella pneumoniae [14] = test: Antibacterial activity against Klebsiella pneumoniae clinical isolate assessed as growth inhibition after 24 hr by disk diffusion method; assay type: functional
Candida albicans [15] = test: Fungicidal activity against Candida albicans ATCC 90028 after 48 hr; assay type: functional; details: ATCC 90028, 48 h
Escherichia coli [16] = test: Antibacterial activity against Escherichia coli ATCC 8739 assessed as growth inhibition after 24 hr by macro-dilution method; details: ATCC 8739, 24 h
Pseudomonas aeruginosa [17] = test: Bactericidal activity against Pseudomonas aeruginosa ATCC 9029 after 18 to 24 hr; assay type: functional
Talaromyces marneffei [18] = test: Fungicidal activity against Talaromyces marneffei after 48 hr; assay type: functional
Streptococcus pyogenes [19] = test: Antibacterial activity against Streptococcus pyogenes clinical isolate assessed as growth inhibition after 24 hr by disk diffusion method; assay type: functional
Aspergillus fumigatus [20] = test: Fungicidal activity against Aspergillus fumigatus after 48 hr; assay type: functional
Aspergillus fumigatus [21] = test: Antifungal activity against Aspergillus fumigatus assessed as growth inhibition after 48 hr by macro-dilution method; assay type: functional
Talaromyces marneffei [22] = test: Antifungal activity against Talaromyces marneffei assessed as growth inhibition after 48 hr by agar disk diffusion method; assay type: functional
Staphylococcus aureus [23] = test: Antibacterial activity against methicillin-resistant Staphylococcus aureus assessed as growth inhibition after 24 hr by disk diffusion method; assay type: functional
Candida albicans [24] = test: Antifungal activity against Candida albicans ATCC 90028 assessed as growth inhibition after 48 hr by agar disk diffusion method; assay type: functional
Pseudomonas aeruginosa [25] = test: Antibacterial activity against Pseudomonas aeruginosa ATCC 9029 assessed as growth inhibition after 24 hr by disk diffusion method; assay type: functional
Pseudomonas aeruginosa [26] = test: Antibacterial activity against Pseudomonas aeruginosa ATCC 9029 assessed as growth inhibition after 24 hr by macro-dilution method; assay type: functional; details: ATCC 9029, 24 h
Klebsiella pneumoniae [27] = test: Antibacterial activity against Klebsiella pneumoniae clinical isolate assessed as growth inhibition after 24 hr by macro-dilution method; assay type: functional
Candida albicans [28] = test: Antifungal activity against Candida albicans ATCC 90028 assessed as growth inhibition after 48 hr by macro-dilution method; assay type: functional; details: ATCC 90028, 48 h
[29] = tested on: Trichophyton mentagrophytes; test: Fungicidal activity against Trichophyton mentagrophytes after 48 hr; assay type: functional
[30] = tested on: Trichophyton mentagrophytes; test: Antifungal activity against Trichophyton mentagrophytes assessed as growth inhibition after 48 hr by macro-dilution method; assay type: functional
[31] = tested on: Radical scavenging activity; test: Antioxidant activity assessed as DPPH radical scavenging activity at 8 ug/mL after 30 min by spectrophotometric analysis relative to control; assay type: functional
Streptococcus pyogenes [32] = test: Bactericidal activity against Streptococcus pyogenes clinical isolate after 18 to 24 hr; assay type: functional
Staphylococcus aureus [33] = test: Bactericidal activity against methicillin-resistant Staphylococcus aureus after 18 to 24 hr; assay type: functional

SMILES	Activity [2] [%]	Activity [3] [%]	diameter of the inhibition zone (DIZ) (Aspergillus fumigatus [4]) [mm]	IC50 [5] [µg/mL]	MIC (Talaromyces marneffei [7]) [µg/mL]	diameter of the inhibition zone (DIZ) (Escherichia coli [9]) [mm]	Activity [10] [%]	Activity [12] [%]	diameter of the inhibition zone (DIZ) [13] [mm]	MFC (Candida albicans [15]) [µg/mL]	MFC (Talaromyces marneffei [18]) [µg/mL]	MFC (Aspergillus fumigatus [20]) [µg/mL]	MIC (Aspergillus fumigatus [21]) [µg/mL]	diameter of the inhibition zone (DIZ) (Talaromyces marneffei [22]) [mm]	diameter of the inhibition zone (DIZ) (Staphylococcus aureus [23]) [mm]	diameter of the inhibition zone (DIZ) (Candida albicans [24]) [mm]	diameter of the inhibition zone (DIZ) (Pseudomonas aeruginosa [25]) [mm]	MIC (Candida albicans [28]) [µg/mL]	MFC [29] [µg/mL]	MIC [30] [µg/mL]	other results
CC1(c2ccccc2)NNC(=O)CO1 (stereo unspecified)	34.8	9.86	17.2	8.25 (≈ 42.9 µM)	25 (≈ 130 µM)	17.4	59.5	23.8	14.5	25 (≈ 130 µM)	100 (≈ 520 µM)	50 (≈ 260 µM)	25 (≈ 130 µM)	14.1	18.2	21.4	24.2	25 (≈ 130 µM)	50 (≈ 260 µM)	25 (≈ 130 µM)	MIC (Staphylococcus aureus [1]): 25 µg/mL (≈ 130 µM); MBC (Klebsiella pneumoniae [6]): 100 µg/mL (≈ 520 µM); MBC (Escherichia coli [8]): 50 µg/mL (≈ 260 µM); MIC (Streptococcus pyogenes [11]): 25 µg/mL (≈ 130 µM); diameter of the inhibition zone (DIZ) (Klebsiella pneumoniae [14]): 14.1 mm; MIC (Escherichia coli [16]): 25 µg/mL (≈ 130 µM); MBC (Pseudomonas aeruginosa [17]): 100 µg/mL (≈ 520 µM); diameter of the inhibition zone (DIZ) (Streptococcus pyogenes [19]): 19.1 mm; MIC (Pseudomonas aeruginosa [26]): 25 µg/mL (≈ 130 µM); MIC (Klebsiella pneumoniae [27]): 25 µg/mL (≈ 130 µM); Activity [31]: 46.8%; MBC (Streptococcus pyogenes [32]): 50 µg/mL (≈ 260 µM); MBC (Staphylococcus aureus [33]): 50 µg/mL (≈ 260 µM)
CC1(c2ccc(O)cc2)NNC(=O)CO1 (stereo unspecified)	37.2	11.9	19.4	8.02 (≈ 38.5 µM)	50 (≈ 240 µM)	18.4	62.4	25.1	16.3	100 (≈ 480 µM)	100 (≈ 480 µM)	100 (≈ 480 µM)	50 (≈ 240 µM)	15.1	18.3	22.4	24.4	25 (≈ 120 µM)	50 (≈ 240 µM)	25 (≈ 120 µM)	MIC (Staphylococcus aureus [1]): 25 µg/mL (≈ 120 µM); MBC (Klebsiella pneumoniae [6]): 50 µg/mL (≈ 240 µM); MBC (Escherichia coli [8]): 100 µg/mL (≈ 480 µM); MIC (Streptococcus pyogenes [11]): 25 µg/mL (≈ 120 µM); diameter of the inhibition zone (DIZ) (Klebsiella pneumoniae [14]): 14.6 mm; MIC (Escherichia coli [16]): 50 µg/mL (≈ 240 µM); MBC (Pseudomonas aeruginosa [17]): 100 µg/mL (≈ 480 µM); diameter of the inhibition zone (DIZ) (Streptococcus pyogenes [19]): 19.3 mm; MIC (Pseudomonas aeruginosa [26]): 25 µg/mL (≈ 120 µM); MIC (Klebsiella pneumoniae [27]): 25 µg/mL (≈ 120 µM); Activity [31]: 49%; MBC (Streptococcus pyogenes [32]): 50 µg/mL (≈ 240 µM); MBC (Staphylococcus aureus [33]): 50 µg/mL (≈ 240 µM)
O=C1O[C@H]([C@@H](O)CO)C(O)=C1O [ASCORBIC ACID]	53.4	18.4	–	4.45 (≈ 25.3 µM)	–	–	87	34.9	–	–	–	–	–	–	–	–	–	–	–	–	Activity [31]: 69.3%
CC1(c2cc(O)ccc2O)NNC(=O)CO1 (stereo unspecified)	25.2	6.61	16.8	12.95 (≈ 57.8 µM)	50 (≈ 223 µM)	17.2	32.3	18.7	14.8	100 (≈ 446 µM)	100 (≈ 446 µM)	100 (≈ 446 µM)	50 (≈ 223 µM)	11.7	17.6	21.4	24.1	50 (≈ 223 µM)	100 (≈ 446 µM)	50 (≈ 223 µM)	MIC (Staphylococcus aureus [1]): 50 µg/mL (≈ 223 µM); MBC (Klebsiella pneumoniae [6]): 100 µg/mL (≈ 446 µM); MBC (Escherichia coli [8]): 100 µg/mL (≈ 446 µM); MIC (Streptococcus pyogenes [11]): 50 µg/mL (≈ 223 µM); diameter of the inhibition zone (DIZ) (Klebsiella pneumoniae [14]): 14.8 mm; MIC (Escherichia coli [16]): 50 µg/mL (≈ 223 µM); MBC (Pseudomonas aeruginosa [17]): 100 µg/mL (≈ 446 µM); diameter of the inhibition zone (DIZ) (Streptococcus pyogenes [19]): 18.6 mm; MIC (Pseudomonas aeruginosa [26]): 50 µg/mL (≈ 223 µM); MIC (Klebsiella pneumoniae [27]): 50 µg/mL (≈ 223 µM); Activity [31]: 30.3%; MBC (Streptococcus pyogenes [32]): 100 µg/mL (≈ 446 µM); MBC (Staphylococcus aureus [33]): 100 µg/mL (≈ 446 µM)
C[C@@H]1[C@H](O)[C@@H](C)/C=C/C=C/C=C/C=C/C=C/C=C/C=C/[C@H](O[C@@H]2O[C@H](C)[C@@H](O)[C@H](N)[C@@H]2O)C[C@@H]2O[C@](O)(C[C@@H](O)C[C@@H](O)[C@H](O)CC[C@@H](O)C[C@@H](O)CC(=O)O[C@H]1C)C[C@H](O)[C@H]2C(=O)O [AMPHOTERICIN B]	–	–	26.5	–	12.5 (≈ 13.5 µM)	–	–	–	23.5	25 (≈ 27.1 µM)	25 (≈ 27.1 µM)	25 (≈ 27.1 µM)	12.5 (≈ 13.5 µM)	21.5	–	30.5	–	6.25 (≈ 6.76 µM)	25 (≈ 27.1 µM)	6.25 (≈ 6.76 µM)	–
CC1(c2cccc(O)c2)NNC(=O)CO1 (stereo unspecified)	50.2	16.7	22.4	5.99 (≈ 28.8 µM)	12.5 (≈ 60 µM)	25.4	82.8	31.8	17.2	25 (≈ 120 µM)	50 (≈ 240 µM)	50 (≈ 240 µM)	12.5 (≈ 60 µM)	14.5	19.1	25.5	26.2	12.5 (≈ 60 µM)	25 (≈ 120 µM)	12.5 (≈ 60 µM)	MIC (Staphylococcus aureus [1]): 12.5 µg/mL (≈ 60 µM); MBC (Klebsiella pneumoniae [6]): 25 µg/mL (≈ 120 µM); MBC (Escherichia coli [8]): 50 µg/mL (≈ 240 µM); MIC (Streptococcus pyogenes [11]): 12.5 µg/mL (≈ 60 µM); diameter of the inhibition zone (DIZ) (Klebsiella pneumoniae [14]): 15.1 mm; MIC (Escherichia coli [16]): 12.5 µg/mL (≈ 60 µM); MBC (Pseudomonas aeruginosa [17]): 25 µg/mL (≈ 120 µM); diameter of the inhibition zone (DIZ) (Streptococcus pyogenes [19]): 19.4 mm; MIC (Pseudomonas aeruginosa [26]): 12.5 µg/mL (≈ 60 µM); MIC (Klebsiella pneumoniae [27]): 12.5 µg/mL (≈ 60 µM); Activity [31]: 66.3%; MBC (Streptococcus pyogenes [32]): 25 µg/mL (≈ 120 µM); MBC (Staphylococcus aureus [33]): 25 µg/mL (≈ 120 µM)
O=C(O)c1cn(C2CC2)c2cc(N3CCNCC3)c(F)cc2c1=O [CIPROFLOXACIN]	–	–	–	–	–	27.5	–	–	–	–	–	–	–	–	21	–	31.5	–	–	–	–
CC1(c2ccc(O)cc2O)NNC(=O)CO1 (stereo unspecified)	49	15.7	16.2	6.28 (≈ 28 µM)	50 (≈ 223 µM)	17.2	81.1	30.2	14.1	100 (≈ 446 µM)	> 100	100 (≈ 446 µM)	50 (≈ 223 µM)	11.1	17.1	20.2	24.4	50 (≈ 223 µM)	100 (≈ 446 µM)	50 (≈ 223 µM)	MIC (Staphylococcus aureus [1]): 50 µg/mL (≈ 223 µM); MBC (Klebsiella pneumoniae [6]): 100 µg/mL (≈ 446 µM); MBC (Escherichia coli [8]): 100 µg/mL (≈ 446 µM); MIC (Streptococcus pyogenes [11]): 50 µg/mL (≈ 223 µM); diameter of the inhibition zone (DIZ) (Klebsiella pneumoniae [14]): 14.1 mm; MIC (Escherichia coli [16]): 50 µg/mL (≈ 223 µM); MBC (Pseudomonas aeruginosa [17]): > 100 µg/mL; diameter of the inhibition zone (DIZ) (Streptococcus pyogenes [19]): 18.1 mm; MIC (Pseudomonas aeruginosa [26]): 50 µg/mL (≈ 223 µM); MIC (Klebsiella pneumoniae [27]): 50 µg/mL (≈ 223 µM); Activity [31]: 64%; MBC (Streptococcus pyogenes [32]): 100 µg/mL (≈ 446 µM); MBC (Staphylococcus aureus [33]): 100 µg/mL (≈ 446 µM)
